Bridge positions count the residues as written; N and C are the ends. Peptide text beside a SMILES is read from it.
Tests used:
cartilage = assay: Peptide homing with kidney ligation (autoradiography); type: in vivo, Female Harlan athymic nude mice; details: mice with ligated kidneys, 50-100 nmol via tail vein injection
Description: This example describes a dosing scheme for administering peptides to mice in conjunction with kidney ligation. Different dosages of the peptides of SEQ ID NO:149 and SEQ ID NO:150 were administered to Female Harlan athymic nude mice, weighing 20 g-25 g, via tail vein injection (n=2 mice per peptide). The experiment was done in duplicates. The kidneys were ligated to prevent renal filtration of the peptides. Each peptide was radiolabeled by methylating lysines and the N-terminus, so the actual binding agent may contain methyl or dimethyl lysine(s) and a methylated or dimethylated amino terminus.
A target dosage of 50-100 nmol of each peptide carrying 10-25 uCi of ^14C was administered to Female Harlan athymic nude mice while anesthetized. Each peptide was allowed to freely circulate within the animal before the animals were euthanized and sectioned.
This example illustrates peptide homing to cartilage of mice with kidneys that were ligated prior to peptide administration. At the end of the dosing period in EXAMPLE 4, mice were frozen in a hexane/dry ice bath and then frozen in a block of carboxymethylcellulose. […]

cartilage and kidneys = assay: Peptide homing with intact kidneys (autoradiography); type: in vivo, Female Harlan athymic nude mice
Description: Additionally, the peptide can be retained in cartilage for hours after treatment. The SEQ ID NO: 150 peptide was radiolabeled as in EXAMPLE 4 and 100 nmol of peptide was injected into a mouse with intact kidneys.
This example describes a dosing scheme for administering peptides to mice without kidney ligation. The peptide administered had the sequence of SEQ ID NO: 150. The peptide was radiolabeled by methylating lysines and the N-terminus, so the actual binding agent may contain methyl or dimethyl lysine(s) and a methylated or dimethylated amino terminus.
A target dosage of 100 nmol of each peptide carrying 10-25 μCi of ^14C was administered to Female Harlan athymic nude mice by a tail vein injection. Each peptide was allowed to freely circulate within the animal for either 4 hours or 24 hours before the animals were euthanized and sectioned.
This example illustrates peptide homing to cartilage in animals with intact kidneys. At the end of the 4 hour or 24 hour dosing periods in EXAMPLE 6, mice were frozen in a hexane/dry ice bath and then frozen in a block of carboxymethylcellulose. […]

[1] = system: cartilage (intervertebral discs, knee joints); assay: Whole body autoradiography of radiolabeled cartilage homing peptides; type: in vivo, Female Harlan athymic nude mice
[2] = system: cartilage (intervertebral discs, knee joints); assay: as above; type: in vivo, Female Harlan athymic nude mice; details: for Homing of radiolabeled peptide to cartilage: mice, 100 nmol via tail vein injection, 5 minutes to 48 hours; for Signal of folded knotted peptide as compared to the linearized peptide of SEQ ID NO: 218: TABLE 8 versus TABLE 9
Description: This example illustrates peptide homing to cartilage mice 5 minutes to 48 hours after administration of a radiolabeled peptide. Signal from the radiolabeled peptides was found in all types of cartilage at each time point examined. Each peptide was radiolabeled by methylating […] as described in EXAMPLE 2. As such, the peptide may contain methyl or dimethyl lysines and a methylated or dimethlyated amino terminus. A dose of 100 nmol radiolabeled peptide was administered via tail vein injection in Female Harlan athymic nude mice, weighing 20-25 g. The experiment was done in duplicate (n=2 animals per group). Each radiolabeled peptide was allowed to freely circulate within the animal for the described time period before the animals were euthanized and sectioned.
Whole body autoradiography (WBA) sagittal sectioning was performed as follows. At the end of the dosing period, mice were frozen in a hexane/dry ice bath and then embedded in a frozen block of carboxymethylcellulose. […] Sections were allowed to dessicate in a freezer prior to imaging. For the autoradiography imaging, tape mounted thin sections were freeze dried and radioactive samples were exposed to phosphoimager plates. These plates were developed and the signal (densitometry) from each organ was normalized to the signal found in the cardiac blood of each animal. A signal in tissue darker than the signal expected from blood in that tissue indicates accumulation in a region, tissue, structure, or cell.

[3] = Stability testing of peptide in solution, RP-HPLC; type: physicochemical; details: 5 mg/mL in 50 mM Tris, 5% Mannitol, pH 7.6
Description: This example describes stability testing of peptides of the present disclosure. A 5 mg/mL solution of SEQ ID NO: 149 (also disclosed as SEQ ID NO: 46; non-GS version of SEQ ID NO: 149/SEQ ID NO: 46 are shown in SEQ ID NO: 128 and SEQ ID NO: 205) was prepared in 50 mM Tris, 5% Mannitol, pH 7.6. The stability of SEQ ID NO: 149 in solution was assessed by stressing the sample at 40° C. for 10 days and analyzed by RP-HPLC side-by-side with an unstressed sample prepared under the same conditions and stored at −20° C. […] This change was predominantly the result of an increase in area of one predominant impurity peak eluting after the main peak in the sample that was exposed to the higher temperature. No other impurities present in the initial sample increased substantially and no substantial new impurities were seen.

GSKCRGSRDCLDPCKKAGMRFGKCINSKCHCTP [SEQ ID NO: 27]
Peptide distribution (14C signal) (cartilage): distribution in nasal, spinal, tracheal, and other cartilage

CC[C@H](C)[C@@H]1NC(=O)[C@@H]2CSSC[C@H](NC(=O)[C@H](CCCCN)NC(=O)[C@@H](NC(=O)[C@H](CC(N)=O)NC(=O)[C@@H](NC(=O)[C@@H]3CCCN3C(=O)[C@@H](NC(=O)CNC(=O)[C@H](CO)NC(=O)CN)C(C)C)[C@@H](C)CC)C(C)C)C(=O)N[C@@H](CCCNC(=N)N)C(=O)NCC(=O)N[C@@H](CO)C(=O)N[C@@H](CCCNC(=N)N)C(=O)N[C@@H](CC(=O)O)C(=O)N[C@H]3CSSC[C@H](NC(=O)[C@H](CCCCN)NC(=O)[C@H](CO)NC(=O)[C@H](CC(N)=O)NC1=O)C(=O)N[C@@H](Cc1c[nH]cn1)C(=O)N[C@H](C(=O)N[C@H](C(=O)N1CCC[C@H]1C(=O)O)[C@@H](C)O)CSSC[C@H](NC(=O)[C@@H]1CCCN1C(=O)[C@H](CC(=O)O)NC(=O)[C@H](CC(C)C)NC3=O)C(=O)N[C@@H](CCCCN)C(=O)N[C@@H](CCCCN)C(=O)N[C@@H](C)C(=O)NCC(=O)N[C@@H](CCSC)C(=O)N[C@@H](CCCNC(=N)N)C(=O)N[C@@H](Cc1ccccc1)C(=O)NCC(=O)N[C@@H](CCCCN)C(=O)N2 [SEQ ID NO: 150] (H-GSGVPINVKCRGSRDCLDPCKKAGMRFGKCINSKCHCTP-OH; disulfide 10-30, 16-35, 20-37; N-terminus and C-terminus assumed)
Peptide distribution (14C signal) (cartilage and kidneys; mice with intact kidneys, 100 nmol via tail vein injection, 4 hours or 24 hours): distribution in joint and other cartilage as well as kidneys | Retention and tissue distribution in cartilage (cartilage and kidneys; mouse with intact kidneys, 100 nmol, 24 hours after administration): retention of and the tissue distribution in the cartilage | Peptide distribution (14C signal) (cartilage): distribution in joint and other cartilage

GSGVPINVRSRGSRDSLDPSRRAGMRFGRSINSRSHSTP [SEQ ID NO: 218, reference compound]
Signal of radiolabeled peptide in IVD as a Percentage of Blood ([1]; 3 hr, Ligated Kidneys): 117 Percentage of Blood | Signal of radiolabeled peptide in IVD as a Percentage of Blood ([1]; 24 hr, Intact Kidneys): 104 Percentage of Blood | Signal of radiolabeled peptide in IVD as a Percentage of Blood ([2]; 3 hr, Intact Kidneys): 177 Percentage of Blood | Homing of radiolabeled peptide to cartilage [2]: homed to cartilage to a much lesser extent

GSGVPINVRCRGSRDCLDPCRRAGMRFGRCINSRCHCTP [SEQ ID NO: 149]
Purity by RP-HPLC of stressed sample ([3]; 40° C. for 10 days): 93.5% | Visual inspection of the samples (solubility, precipitation) ([3]; 40° C. for 10 days versus −20° C.): no change in solubility | Initial purity by RP-HPLC (non-stressed sample) ([3]; stored at −20° C.): 96.4% | Signal of folded knotted peptide as compared to the linearized peptide of SEQ ID NO: 218 ([2]; at 3 hours): ~20 fold | Signal of folded knotted peptide as compared to the linearized peptide of SEQ ID NO: 218 ([2]; at 24 hours): ~50 fold | Signal of radiolabeled peptide in IVD as a Percentage of Blood ([2]; intervertebral discs, 0.08 hours after 100 nmol via tail vein injection): 164 Percentage of Blood | Signal of radiolabeled peptide in IVD as a Percentage of Blood ([2]; intervertebral discs, 0.5 hours after 100 nmol via tail vein injection): 369 Percentage of Blood | Signal of radiolabeled peptide in IVD as a Percentage of Blood ([2]; intervertebral discs, 1 hour after 100 nmol via tail vein injection): 961 Percentage of Blood | Signal of radiolabeled peptide in IVD as a Percentage of Blood ([2]; intervertebral discs, 3 hours after 100 nmol via tail vein injection): 3213 Percentage of Blood | Signal of radiolabeled peptide in IVD as a Percentage of Blood ([2]; intervertebral discs, 8 hours after 100 nmol via tail vein injection): 3777 Percentage of Blood | Signal of radiolabeled peptide in IVD as a Percentage of Blood ([2]; intervertebral discs, 24 hours after 100 nmol via tail vein injection): 5391 Percentage of Blood | Signal of radiolabeled peptide in IVD as a Percentage of Blood ([2]; intervertebral discs, 48 hours after 100 nmol via tail vein injection): 3320 Percentage of Blood | Signal of radiolabeled peptide in Knee Joints as a Percentage of Blood ([2]; 0.08 hours after 100 nmol via tail vein injection): 404 Percentage of Blood | Signal of radiolabeled peptide in Knee Joints as a Percentage of Blood ([2]; 0.5 hours after 100 nmol via tail vein injection): 510 Percentage of Blood | Signal of radiolabeled peptide in Knee Joints as a Percentage of Blood ([2]; 1 hour after 100 nmol via tail vein injection): 1114 Percentage of Blood | Signal of radiolabeled peptide in Knee Joints as a Percentage of Blood ([2]; 3 hours after 100 nmol via tail vein injection): 4059 Percentage of Blood | Signal of radiolabeled peptide in Knee Joints as a Percentage of Blood ([2]; 8 hours after 100 nmol via tail vein injection): 4990 Percentage of Blood | Signal of radiolabeled peptide in Knee Joints as a Percentage of Blood ([2]; 24 hours after 100 nmol via tail vein injection): 2137 Percentage of Blood | Signal of radiolabeled peptide in Knee Joints as a Percentage of Blood ([2]; 48 hours after 100 nmol via tail vein injection): 843 Percentage of Blood | Homing of radiolabeled peptide to cartilage [2]: homed to and accumulated in the cartilage
